21 compounds from patent US9162979B2, “1,5-Diary1-2-alkylpyrrole-3-substituted nitro esters, selective COX-2 inhibitors and nitric oxide donors” (ROTTAPHARM BIOTECH S.R.L., priority 2010, dated 2015) can be followed below.

One data set has as its target COX-2 (Mus musculus (Mouse), UniProt Q05769). As to the kind of experiment: Evaluation of COX-2 activity: PGE2 production in LPS-stimulated J774 cells. The settings on record: J774 cells stimulated 24 hours with LPS 10 μg/mL; PGE2 by radio-immunological assay; read-out: Cyclooxygenase inhibition COX-2 IC50. The class given is cell-based, murine. As to the method: The murine monocyte/macrophage cell line J774 is grown in Dulbecco's modified Eagle's medium (DMEM), enriched with glutamine (2 mM), HEPES (25 mM), penicillin (100 u/mL), streptomycin (100 μg/mL), 10% of fetal bovine serum (FBS) and 1.2% of sodium pyruvate. […] Just before the experiments, the culture medium is replaced with fresh medium without FBS to avoid interference during the radio-immunological phase and the cells are stimulated as described below.
The supernatants are collected for evaluating, by means of radio-immunological assays, the amount of PGE2 produced.
In each group of experiments, wells were used in triplicate for the different treatment conditions. […] The data were evaluated using the sigmoidal dose-response equation (variable slope) (GraphPad software). IC50 and the 95% precision intervals were calculated with the program GraphPad Instat (GraphPad software).

Data set [1] relates to isolated rings of thoracic aorta. As to the kind of experiment: Evaluation of release of NO: vasorelaxing activity on endothelium-denuded aortic rings contracted with KCl. Details: species or system rat. The note with it: Rattus norvegicus; relative to contractile tone induced by 20 mM KCl; 1 nM-10 μM; read-out: NO release properties Emax (maximum vasorelaxing effect). As to the method: The activity of the compounds was evaluated on isolated rings of thoracic aorta of normotensive male Wistar rats (250-350 g). After light anaesthesia with ether, the rats were sacrificed by cervical dislocation and exsanguination. The aortas were immediately excised, extraneous tissues were removed and the endothelial layer was removed by gently rubbing the surface with a hypodermic needle. Rings of aorta with a width of 5 mm were suspended, with a preload of 2 g, in 20-ml organ baths, containing a solution of “Tyrode” (composition of the saline solution in mM: NaCl 136.8; KCl 2.95; CaCl2 1.80; MgSO4 1.05; NaH2PO4 0.41; NaHCO3 11.9; glucose 5.5), thermostatically controlled at 37° C. and kept in an atmosphere of O2 (95%) and CO2 (5%). […] were recorded by means of an isometric transducer (FTO3 Erba), connected to a microdynamometer (Buxco Electronics).
60 minutes after preparation, removal of the endothelium was confirmed by acetylcholine (ACH) (10 μM) treatment of the vascular rings pre-contracted with KCl (20 mM). Relaxation of less than 10% of the contraction induced by KCl was considered as representative of acceptable removal of the endothelial layer, whereas organs displaying relaxation ≧10% were discarded. 40 minutes after confirmation of complete removal of the endothelium, the aortas were contracted by treatment with a single dose of KCl (20 mM) and after the contraction reached a stable plateau, increasing cumulative concentrations (with progressive increments of 3 times) of the test compounds (1 nM-10 μM) were added. It was found from preliminary experiments that the contraction induced by KCl (20 mM) remained stable in a tonic state for at least 40 minutes. The same experiments were performed in the presence of a well-known inhibitor of guanylate cyclase: ODQ 1 μM, which was incubated in aorta preparations after confirmation of removal of the endothelium.
Analysis of the results. The vasorelaxing activity was evaluated as a percentage (%) relative to the contractile tone induced by 20 mM KCl. The pharmacodynamic efficacy parameter (Emax) corresponds to the maximum vasorelaxing effect induced by the molecule tested, expressed as percentage relative to the contractile tone induced by 20 mM KCl. When the limit concentration of 10 μM (the highest concentration administered) of the test compounds has not reached the maximum effect, the efficacy parameter (Emax) corresponds to the vasorelaxing effect induced by the limit concentration (expressed as percentage relative to the contractile tone induced by 20 mM KCl). The pharmacodynamic parameter of potency of the compounds was expressed as pIC50 calculated as the negative logarithm of the molar concentration of test compound that reduces the contractile tone induced by 20 mM KCl by half. […] The parameters of efficacy and potency were expressed as mean±standard error, for 5-10 experiments. The experimental data were analysed by the program GraphPad Prism 3.0.

Structures are written as SMILES. Structures can show the parent of a compound that is named as a salt.

COX-2, sequence (Q05769 18-604): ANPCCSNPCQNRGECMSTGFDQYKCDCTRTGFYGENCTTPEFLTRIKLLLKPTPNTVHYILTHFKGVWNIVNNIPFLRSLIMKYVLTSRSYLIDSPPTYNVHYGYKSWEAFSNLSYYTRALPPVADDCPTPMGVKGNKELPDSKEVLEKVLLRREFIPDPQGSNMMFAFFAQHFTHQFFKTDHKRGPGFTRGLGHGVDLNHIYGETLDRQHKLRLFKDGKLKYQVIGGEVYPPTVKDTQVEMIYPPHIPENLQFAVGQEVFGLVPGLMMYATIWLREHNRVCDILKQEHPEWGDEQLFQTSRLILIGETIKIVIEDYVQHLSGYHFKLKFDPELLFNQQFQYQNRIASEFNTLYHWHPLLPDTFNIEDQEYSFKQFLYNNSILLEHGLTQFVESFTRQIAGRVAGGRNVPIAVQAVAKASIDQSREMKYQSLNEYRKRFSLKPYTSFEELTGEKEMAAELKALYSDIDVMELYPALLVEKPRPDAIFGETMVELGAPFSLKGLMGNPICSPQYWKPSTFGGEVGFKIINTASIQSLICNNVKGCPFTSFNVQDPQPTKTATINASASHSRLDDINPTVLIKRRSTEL

For orientation: melting point means the temperature of the solid-liquid transition. In turn, `Cc1c(C(N)C(=O)OCCCCO[N+](=O)[O-])cc(-c2ccc(S(C)(=O)=O)cc2)n1-c1cccc(F)c1` (racemic) [Example 21, (R,S)-4-(Nitrooxy)butyl-[2-amino-2-[1-(3-fluorophenyl)-2-methyl-5-(4-methylsulphonylphenyl)-1H-pyrrol-3-yl]]-acetate] displayed a melting point of 110 °C.

The term IC50 denotes the point on the concentration scale where inhibition reaches its midpoint. The compound `Cc1c(CC(=O)NCCCO)cc(-c2ccc(S(C)(=O)=O)cc2)n1-c1ccc(F)cc1` [Example 26-II, N-[(3-Hydroxy)propyl]-2-[1-(4-fluorophenyl)-2-methyl-5-(4-methylsulphonylphenyl)-1H-pyrrol-3-yl]acetamide] registered a melting point of 105 °C. Also, the IC50 at COX-2 was 68 nM.

In the case of `Cc1c(CCOCCO[N+](=O)[O-])cc(-c2ccc(S(C)(=O)=O)cc2)n1-c1cccc(F)c1` (as salt: nitrate) [Example 38, 2-[2-[2-(1-(3-Fluorophenyl)-2-methyl-5-(4-methylsulphonylphenyl)-1H-pyrrol-3-yl]ethoxy]ethyl Nitrate], the melting point lay in the range of 94 to 97 °C.

For the compound `Cc1c(C(N)C(=O)OCCO)cc(-c2ccc(S(C)(=O)=O)cc2)n1-c1ccc(F)cc1` (racemic) [Example 16-II, (R,S)-2-(Hydroxy)ethyl-[2-amino-2-[1-(4-fluorophenyl)-2-methyl-5-(4-methylsulphonylphenyl)-pyrrol-3-yl]]-acetate], the melting point is 102 °C.

In turn, `Cc1c(CCOCCCO[N+](=O)[O-])cc(-c2ccc(S(C)(=O)=O)cc2)n1-c1cccc(F)c1` (as salt: nitrate) [Example 42, 3-[2-(1-(3-Fluorophenyl)-2-methyl-5-(4-methylsulphonylphenyl)-1H-pyrrol-3-yl)ethoxy]propyl Nitrate] gave a melting point of 111 to 113 °C.

As to `Cc1c(C(N)C(=O)OCCCO[N+](=O)[O-])cc(-c2ccc(S(C)(=O)=O)cc2)n1-c1cccc(F)c1` (racemic) [Example 19, (R,S)-3-(Nitrooxy)propyl-[2-amino-2-[1-(3-fluorophenyl)-2-methyl-5-(4-methylsulphonylphenyl)-1H-pyrrol-3-yl]]-acetate], the melting point stood at 117 °C.

`Cc1c(CCOCCCO)cc(-c2ccc(S(C)(=O)=O)cc2)n1-c1ccc(F)cc1` [Example 41-II, 3-[2-[2-(1-(4-Fluorophenyl)-2-methyl-5-(4-methylsulphonylphenyl)-1H-pyrrol-3-yl)]ethoxy]propanol] came in with a melting point of 100 to 102 °C. Besides, the IC50 on COX-2 came out at 940 nM.

On to `Cc1c(CCOCCCO[N+](=O)[O-])cc(-c2ccc(S(C)(=O)=O)cc2)n1-c1ccccc1` (as salt: nitrate) [Example 40, 3-[2-[2-(1-Phenyl-2-methyl-5-(4-methylsulphonylphenyl)-1H-pyrrol-3-yl)ethoxy]propyl Nitrate], for which the melting point lay in the range of 131 to 133 °C.

`COc1ccc(-n2c(-c3ccc(S(C)(=O)=O)cc3)cc(CC(=O)OCCCCO[N+](=O)[O-])c2C)cc1` [Example 13, 4-(Nitrooxy)butyl-2-[1-(4-methoxyphenyl)-2-methyl-5-(4-methylsulphonylphenyl)-1H-pyrrol-3-yl]acetate]: the melting point was 109 °C. Besides, the IC50 at COX-2 amounted to 550 nM.

With `Cc1c(CCOCCO[N+](=O)[O-])cc(-c2ccc(S(C)(=O)=O)cc2)n1-c1ccc(F)c(F)c1` (as salt: nitrate) [Example 39, 2-[2-[2-(1-(3,4-Difluorophenyl)-2-methyl-5-(4-methylsulphonylphenyl)-1H-pyrrol-3-yl]ethoxy]ethyl Nitrate], the melting point lay in the range of 93 to 96 °C.

Turning to `Cc1c(CC(=O)OCCCO[N+](=O)[O-])cc(-c2ccc(S(C)(=O)=O)cc2)n1-c1ccccc1` [Example 6], the melting point lay in the range of 116 to 118 °C.

The compound `Cc1c(CC(=O)NCCCO[N+](=O)[O-])cc(-c2ccc(S(C)(=O)=O)cc2)n1-c1cccc(F)c1` [Example 27, N-[(3-Nitroxy)propyl]-2-[1-(3-fluorophenyl)-2-methyl-5-(4-methylsulphonylphenyl)-1H-pyrrol-3-yl]acetamide] had a melting point of 125 °C.

`Cc1c(CC(=O)NCCCO)cc(-c2ccc(S(C)(=O)=O)cc2)n1-c1cccc(F)c1` [Example 27-II, N-[(3-Hydroxy)propyl]-2-[1-(3-fluorophenyl)-2-methyl-5-(4-methylsulphonylphenyl)-1H-pyrrol-3-yl]acetamide] showed a melting point of 102 °C. Moreover, the IC50 on COX-2 came out at 14 nM.

`Cc1c(CC(=O)OCCO)cc(-c2ccc(S(C)(=O)=O)cc2)n1-c1cccc(F)c1` [Example 3-II] returned a melting point of 115 °C. Besides, at COX-2, the IC50 amounted to 85 nM.

On to `Cc1c(CC(=O)OCCO)cc(-c2ccc(S(C)(=O)=O)cc2)n1-c1ccc(F)cc1` [Example 2-II, 2-Hydroxyethyl-[2-(1-(4-fluorophenyl)-2-methyl-5-(4-methylsulphonylphenyl)-1H-pyrrol-3-yl)]acetate], for which the melting point was 129 to 131 °C. Further, the IC50 on COX-2 amounted to 89 nM.

Regarding `Cc1c(CC(=O)NCCO)cc(-c2ccc(S(C)(=O)=O)cc2)n1-c1ccc(F)cc1` [Example 23-II, N-[(2-Hydroxy)ethyl]-2-[1-(4-fluorophenyl)-2-methyl-5-(4-methylsulphonylphenyl)-1H-pyrrol-3-yl]acetamide], the melting point came to 99 °C. Also, the IC50 on COX-2 worked out at 300 nM.

By Emax is commonly meant the greatest response seen or fitted, relative to the assay's reference. Compound `Cc1c(CC(=O)OCCCCO[N+](=O)[O-])cc(-c2ccc(S(C)(=O)=O)cc2)n1-c1ccc(F)cc1` [Example 11, 4-(Nitrooxy)butyl-2-[1-(4-fluorophenyl)-2-methyl-5-(4-methylsulphonylphenyl)-1H-pyrrol-3-yl]acetate] gave a melting point of 102 to 104 °C. Further, in data set [1], the Emax is 40 ± 8%.

`Cc1c(CCOCCCO[N+](=O)[O-])cc(-c2ccc(S(C)(=O)=O)cc2)n1-c1ccc(F)cc1` (as salt: nitrate) [Example 41, 3-[2-[2-(1-(4-Fluorophenyl)-2-methyl-5-(4-methylsulphonylphenyl)-1H-pyrrol-3-yl)]ethoxy]propyl Nitrate]: the melting point lay in the range of 114 to 116 °C.

Regarding `Cc1c(C(N)C(=O)OCCO)cc(-c2ccc(S(C)(=O)=O)cc2)n1-c1cccc(F)c1` (racemic) [Example 17-II, (R,S)-2-(Hydroxy)ethyl-[2-amino-2-[1-(3-fluorophenyl)-2-methyl-5-(4-methylsulphonylphenyl)-1H-pyrrol-3-yl]]-acetate], the melting point turned out to be 102 °C.

`COc1ccc(-n2c(-c3ccc(S(C)(=O)=O)cc3)cc(CC(=O)OCCO)c2C)cc1` [Example 4-II, 2-(Hydroxy)ethyl-[1-(4-methoxyphenyl)-2-methyl-5-(4-methylsulphonylphenyl)-1H-pyrrol-3-yl]-acetate] yielded a melting point of 105 °C. In addition, the IC50 at COX-2 amounted to 1100 nM.

As to `Cc1c(CC(=O)OCCCO[N+](=O)[O-])cc(-c2ccc(S(C)(=O)=O)cc2)n1-c1ccc(F)cc1` [Example 7, 3-(Nitrooxy)propyl 2-[1-(4-fluorophenyl)-2-methyl-5-(4-methylsulphonylphenyl)-1H-pyrrol-3-yl]acetate], the melting point is 126 to 128 °C.
